Experimental findings from publication PMC7753975 (Journal of medicinal chemistry, 2015) are described below.

What is called GI50 is the concentration that inhibits growth by half.

Structures are written as SMILES. Where two headings read alike, the source gives them in different places.

This data set deals with NCI-60 human tumor cell lines. As to the kind of experiment: NCI-60 five-dose assay, mean graph midpoint. Type of data set: cell-based.
The mark [1] stands for this setting: Homo sapiens, read-out: cytotoxicity (GI50, μM) MGM, mean graph midpoint of growth inhibition from 5 dose assay, ranging from 10^−8–10^−4 M.

As to `CC[C@@]1(O)C(=O)OCc2c1cc1n(c2=O)Cc2cc3c(CN(C)C)c(O)ccc3nc2-1` [Compound 2, topotecan, reference compound], the 50% growth inhibitory concentration (GI50) under setting [1] is 0.0405 ± 0.0187 µM.
For `O=C1c2ccccc2-c2c1c1ccc(Cl)cc1c(=O)n2C[C@H](O)CO` [Compound 50, (S)-3-Chloro-5,6-dihydro-6-(2,3-dihydroxypropyl)-5,11-dioxo-11H-indeno[1,2-c]isoquinoline], the GI50 under setting [1] came to 1.12 µM.
In the case of `O=C1c2ccccc2-c2c1c1ccc(F)cc1c(=O)n2CCCn1ccnc1` [Compound 60, 3-Fluoro-5,6-dihydro-6-(3-(1H-imidazol-1-yl)propyl)-5,11-dioxo-11H-indeno[1,2-c]isoquinoline], the concentration for 50% growth inhibition (GI50) under setting [1] was 0.692 µM.
For the compound `O=C1c2ccccc2-c2c1c1ccc(I)cc1c(=O)n2CCCn1ccnc1` [Compound 62, 5,6-Dihydro-6-(3-(1H-imidazol-1-yl)propyl)-3-iodo-5,11-dioxo-11H-indeno[1,2-c]isoquinoline], the concentration for 50% growth inhibition (GI50) is, setting by setting: under setting [1], ≥ 0.944 µM; (human) 1.62 µM.
`O=C1c2ccccc2-c2c1c1cc(C(F)(F)F)ccc1c(=O)n2CCCn1ccnc1` [Compound 63, 2-(Trifluoromethyl)-5,6-dihydro-6-(3-(1H-imidazol-1-yl)-propyl)-5,11-dioxo-11H-indeno[1,2-c]isoquinoline]: the 50% growth inhibitory concentration (GI50) under setting [1] is ≥ 0.944 µM.
On the same count and under the same terms, then `O=C1c2ccccc2-c2c1c1ccc(C(F)(F)F)cc1c(=O)n2CCCn1ccnc1` [Compound 64, 3-(Trifluoromethyl)-5,6-dihydro-6-(3-(1H-imidazol-1-yl)-propyl)-5,11-dioxo-11H-indeno[1,2-c]isoquinoline], with 1.07 µM; and `O=C1c2ccccc2-c2c1c1ccc(F)cc1c(=O)n2CCCN1CCOCC1` [Compound 68, 3-Fluoro-5,6-dihydro-6-(3-morpholinopropyl)-5,11-dioxo-11H-indeno[1,2-c]isoquinoline], with 2.75 µM.
The same measure, in the same setting: then `O=C1c2ccccc2-c2c1c1ccc(Cl)cc1c(=O)n2CCCN1CCOCC1` [Compound 69, 3-Chloro-5,6-dihydro-6-(3-morpholinopropyl)-5,11-dioxo-11H-indeno[1,2-c]isoquinoline], with 4.17 µM.
